Consider 1 compound from PMC6290777, “Inhalation of the prodrug PI3K inhibitor CL27c improves lung function in asthma and fibrosis” (Nature Communications, 2018).

Series [1] has as its system fMLP-activated LPS-primed neutrophils. Description: ROS production by fMLP-activated LPS-primed neutrophils. The conditions noted are these: fMLP 2.5 μM; CL27c 1 and 10 µM. The format is cell-based, mouse. The method, then: Production of ROS was determined by primary isolated neutrophils (5 × 10^6/mL) (as described above) with lipopolysaccharide (1 μg/mL) for 1 h and then preincubating them with luminol (20 μg/mL) and horseradish peroxidase (35 μg/mL) in RPMI medium plus 10% FCS. The cells were subsequently stimulated with 2.5 μM formyl-methionyl-leucyl-phenylalanine (fMLP, Sigma-Aldrich), and light emission was recorded every 5 sec for a period of 300 sec in a Berthold MicroLumat Plus luminometer (Berthold Technologies).

Series [2] is described as follows: Microsomial stability, mouse. The format is in vitro ADME. As to conditions: mouse liver microsomes, NADPH. On the procedure:
To define whether this prodrug was suitable for inhaled administration, CL27c was studied to evaluate selected ADME (absorption, distribution, metabolism, and excretion) and pharmacokinetic properties. First, stability of CL27c and CL27e was analyzed in mouse plasma (Supplementary Table 1) and in mouse, rat, and human liver microsomes in the presence of nicotinamide adenine dinucleotide phosphate (NADPH; Supplementary Table 2). Next, clearance of CL27c was analyzed in C57BL/6J mice after either intra-venous or oral administration. […] Clearance of CL27c and CL27e after oral administration could not be determined due to their low bioavailability (Supplementary Table 3). […]
obtained at 200 × magnification were analyzed using the software Image -J (NIH, USA). Results were expressed as extracellular matrix deposition area (pixels). […]
Akt phosphorylation was measured by western blot as described in the “Western blot analysis” in […]
Cells were obtained from Lymph nodes and spleen from naive C57Bl/6J and purified with CD4 T cell isolation Kit (Miltenyi Biotec #130-104-454) and with CD25 biotin (eBioscience #13-0252-81) and microbeads anti-biotin (Miltenyi Biotec #130-090-485). […] Positive stained cells were analyzed with FlowJo X software after removal of doublets events and debris through FSC-A/FSC-H gating.

In the case of `COC(=O)c1cccc(Cn2cc(-c3cccc4c(=O)cc(N5CCOCC5)[nH]c34)nn2)c1` [CL27c], the “reactive oxygen species production (respiratory burst)” value in series [1] is “efficiently and dose-dependently inhibited reactive oxygen species production”. In series [2], the “Clint (intrinsic clearance)” value was 0.1 ± 0.02 ml/min/mg prot and the t1/2 was determined as 12.4 ± 2.0 min.
